According to ChEMBL document CHEMBL1201862, “PubChem BioAssay data set” (2004):
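Briefly, cells in 96-well plates were exposed to five compound concentrations for 48 h, and endpoints were estimated by linear interpolation. GI50 is the concentration that inhibits growth by half.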 Activity calls are given as the source filed them. Rule as the data show it: active = GI50 up to about 1.1 µM and inactive = higher.

Legend:
Assay in all cases: DTP human tumour cell line panel, 48 h
[1] = system: A498
[2] = system: OVCAR-4
[3] = system: HL-60
[4] = system: PC-3
[5] = system: MCF7
[6] = system: COLO 205
[7] = system: MDA-MB-231
[8] = system: DU-145
[9] = system: HCC 2998
[10] = system: SNB-19
[11] = system: OVCAR-5
[12] = system: SK-OV-3
[13] = system: MDA-N
[14] = system: U-251
[15] = system: M14
[16] = system: EKVX
[17] = system: NCI-H226
[18] = system: UO-31
[19] = system: SF-539
[20] = system: SR

Measured: GI50

CCSc1n/c(=C\c2ccc(N(C)C)cc2)c2nnnn12
inactive: [1] > 100 µM | [2] > 100 µM | [3] > 100 µM | [4] > 100 µM | [5] > 100 µM | [6] > 100 µM | [7] > 100 µM | [8] > 100 µM | [9] > 100 µM | [10] > 100 µM | [11] > 100 µM | [12] > 100 µM | [13] > 100 µM | [14] > 100 µM | [15] > 100 µM | [16] > 100 µM | [17] > 100 µM

N#CC(c1ccccc1)N(CCOCCOCCN(C(=O)c1cccc2ccccc12)C(C#N)c1ccccc1)C(=O)c1cccc2ccccc12 (configuration not stated)
inactive: [1] > 100 µM | [2] > 100 µM | [3] 31.7 µM | [4] > 100 µM | [5] > 100 µM | [6] 52.1 µM | [7] > 100 µM | [8] > 100 µM | [9] > 100 µM | [10] > 100 µM | [11] > 100 µM | [18] > 100 µM | [12] > 100 µM | [19] > 100 µM | [13] > 100 µM | [14] > 100 µM | [15] > 100 µM | [16] > 100 µM | [17] > 100 µM

C#CCN(C(=O)C(F)(F)F)C(/C=C\C(=O)OC)(C(=O)OCC)C(=O)OCC
inactive: [1] > 100 µM | [2] > 100 µM | [3] > 100 µM | [4] > 100 µM | [5] > 100 µM | [6] > 10 µM | [7] > 100 µM | [8] > 100 µM | [9] > 100 µM | [10] > 100 µM | [11] > 100 µM | [18] > 100 µM | [12] > 100 µM | [19] > 100 µM | [13] > 100 µM | [14] > 100 µM | [15] > 100 µM | [16] > 100 µM | [17] > 100 µM

CC[C@@]1(OC(=O)CN(C)C)C(=O)OCc2c1cc1n(c2=O)Cc2cc3ccccc3nc2-1
inactive: [7] 3.27 µM
active: [1] 0.205 µM | [2] 0.482 µM | [3] 0.0105 µM | [4] 0.0973 µM | [5] 0.00853 µM | [6] 0.394 µM | [8] 0.013 µM | [9] 0.145 µM | [10] 0.0208 µM | [11] 0.247 µM | [18] 0.0296 µM | [12] 0.071 µM | [19] 0.0111 µM | [13] 0.173 µM | [14] 0.0118 µM | [15] 0.0525 µM | [16] 0.863 µM | [17] 0.0356 µM

O=C1CN(c2ccccc2)Cc2nc(Cl)ccc2N1
inactive: [20] > 100 µM | [2] > 100 µM | [3] > 100 µM | [4] 79.4 µM | [5] > 100 µM | [6] > 100 µM | [7] > 100 µM | [8] > 100 µM | [9] > 100 µM | [10] > 100 µM | [11] > 100 µM | [18] > 100 µM | [12] > 100 µM | [19] > 100 µM | [13] > 100 µM | [14] > 100 µM | [15] > 100 µM | [16] > 100 µM | [17] > 100 µM

CC1C(c2ccccc2)NC(c2ccccc2)CC1(N)C#N (configuration not stated)
inactive: [20] > 100 µM | [2] > 100 µM | [3] > 100 µM | [4] > 100 µM | [5] > 100 µM | [6] 43.4 µM | [7] > 100 µM | [8] > 100 µM | [9] > 100 µM | [10] > 100 µM | [11] > 100 µM | [18] > 100 µM | [12] > 100 µM | [19] > 100 µM | [13] > 100 µM | [14] > 100 µM | [15] 38.8 µM | [16] > 100 µM | [17] > 100 µM

CCC1(CC)C(=O)N(C(=O)c2ccccc2)N(C(=O)c2ccc(Cl)cc2)C1=O
inactive: [20] 16.5 µM | [2] > 75 µM | [3] 22 µM | [4] > 75 µM | [5] > 75 µM | [6] > 75 µM | [7] > 75 µM | [8] > 75 µM | [9] > 75 µM | [10] > 75 µM | [11] > 75 µM | [18] > 75 µM | [12] > 75 µM | [13] > 75 µM | [14] 59.3 µM | [15] > 75 µM | [16] > 75 µM | [17] > 75 µM

C=C1CC2[C@H](C)C(=O)CCC2(C)C2=C1C1CCC(C(C)CCC(=C)C(C)C(=O)O)C1(C)CC2=O (some centres not stated)
inactive: [1] > 100 µM | [2] 48.4 µM | [3] 15.2 µM | [4] 32.1 µM | [5] 83.9 µM | [6] 49.4 µM | [7] > 100 µM | [8] 53.1 µM | [9] 47 µM | [10] 69.5 µM | [11] > 100 µM | [18] 30.9 µM | [12] 89.5 µM | [19] 97.3 µM | [13] 95.3 µM | [14] 55.1 µM | [15] > 100 µM | [16] 71.8 µM | [17] 82 µM

O=c1oc2c/c(=C\c3ccccn3)c(=O)c3cccc1c3-2
inactive: [20] 54.8 µM | [2] > 100 µM | [3] > 100 µM | [4] 72.6 µM | [5] > 100 µM | [6] > 100 µM | [7] 31.8 µM | [8] > 100 µM | [9] > 100 µM | [10] 68.2 µM | [11] > 100 µM | [12] > 100 µM | [19] 19.7 µM | [13] > 100 µM | [15] > 100 µM | [16] > 100 µM | [17] 28.3 µM

COC(=O)c1ccccc1C1CN=NC12Cc1ccc(C)c(C)c1C2=O (configuration not stated)
inactive: [1] > 100 µM | [2] 31.6 µM | [3] 16.3 µM | [4] 50.8 µM | [5] 35.6 µM | [6] 53.7 µM | [7] 40.2 µM | [8] > 100 µM | [9] 68.9 µM | [10] > 100 µM | [11] > 100 µM | [18] 93.8 µM | [12] > 100 µM | [19] > 100 µM | [13] 77.4 µM | [14] > 100 µM | [15] 62.7 µM | [16] > 100 µM | [17] > 100 µM

CC(C)=CCN=C(N)N
inactive: [20] 16.7 µM | [2] > 100 µM | [3] 45.8 µM | [4] > 100 µM | [5] > 100 µM | [6] > 100 µM | [7] > 100 µM | [8] > 100 µM | [9] > 100 µM | [10] > 100 µM | [18] > 100 µM | [12] > 100 µM | [19] > 100 µM | [13] > 100 µM | [14] > 100 µM | [16] > 100 µM | [17] > 100 µM
